Consider 35 molecules from a melting point compilation (Tetko et al.; mined from patent text by program, amines drawn as free bases though some values may be those of a salt).

Structures are written as SMILES.

The molecule `CNC(=O)C(C)(C)CCCCC1(CCCCC(C)(C)C(=O)NC)SCCCS1` showed a melting point of 104 to 106 °C. To `CCN(CC)C(=O)n1cnc(S(=O)(=O)C(F)(F)Br)n1` belongs 74 to 75 °C.

Take `CC(C)C[C@@H](CO)NC(=O)[C@@H](O)[C@@H](Cc1ccc(S(C)(=O)=O)cc1)NC(=O)OCc1ccccc1`: the melting point was 165 to 173 °C.

On to `COC(=O)c1cc(-c2ccc(Cl)c(C)c2)n(Cc2ccc(C)cc2)n1`, for which the melting point is 98 °C.

Molecule `COC(=O)c1cnc(SC)n1C(c1ccccc1)c1ccccc1` came in with a melting point of 118 °C. Next, `CCN(CC)C(=O)c1cc(-c2ccc(OC)cc2)c2ccccc2c1OC`: 129 to 130 °C; `Cc1nc2c(O)cccn2c1C=O`: 251 to 252 °C; `CC(=O)N(C)Nc1ccc(CCn2cnc3cc(-c4ccc(Cl)cc4)sc3c2=O)cc1`: 267 to 268 °C. To `Cc1c(N)ccc2c1C(=O)NS2(=O)=O` belongs 272 to 273 °C; to `CS(=O)(=O)c1ccc(N2C=CC(N3CCCC3)C(=O)N2c2ccc(F)cc2)cc1` (stereo not given), 192 to 195 °C; to `CCc1nn(C2CCCC2)c2cc(C(=O)NCCC(=O)NOCc3ccccc3)ccc12`, 134 to 136 °C. The molecule `COc1ccc(S(=O)(=O)Nc2ccccc2/C=C/c2ccncc2C)cc1` gave a melting point of 183 to 185 °C.

For `O=c1oc(-c2cccc(Cl)c2)cc(O)c1SCCc1ccccc1`, the melting point lay in the range of 125 to 127 °C. To `CC(=O)On1cc(-c2ccccc2)c(=O)c(-c2ccccc2)c1` belongs 197 to 199 °C.

On to `Cc1c(N2C(=O)CCC2=O)nc(C)n2c1c(CCCl)c1ccccc12`, for which the melting point was in the range of 232 to 234 °C. To `CCCc1nn(C)c2c(=O)[nH]c(Cc3ccc(NC(=O)/C=C/OCC)cc3)nc12` belongs 241 to 243 °C.

Regarding `CCCCCCCCC(CCC(=O)O)(CCC(=O)O)C(C)=O`, the melting point lay within 69 to 71 °C. To `C1COC(NC(C2CC2)C2CC2)=N1` belongs 105 to 106 °C; to `Nc1c(Br)cc(S(N)(=O)=O)cc1[N+](=O)[O-]`, 216 to 218 °C; to `COc1cc(Nc2nccc(-c3ccc(N4CC[C@@H](N(C)C)C4)nc3)n2)cc(OC)c1OC`, 150 to 151 °C. Next, `CCNc1nc(OC)c(C(=O)NC2CCN(C3CCCCC3)C2)nc1Cl` (stereo not given): 171 to 173 °C.

In the case of `CC(C)n1nc(-c2sc(NC(=O)c3ccc(CNCCN4CCOCC4)cc3)nc2-c2ccccc2)ccc1=O`, the melting point lay within 86 to 88 °C.

Take `O=C(/C=C/c1cccs1)Nc1ccc(-n2nc(C(F)(F)F)cc2C(F)(F)F)cc1`: the melting point lay in the range of 216 to 218 °C. Next, `C=C1OC(=NO)C(c2ccccc2)C(=O)N1C(C)(C)C(=O)Nc1cc(Cl)cc(Cl)c1` (stereo not given): 208 to 210 °C; `Nc1nc2c(s1)CCN(CCCCCc1ccccc1)CC2`: 102 to 105 °C. To `CC(C)(C)OC(=O)N1CCc2cc(OCc3ccccc3)c(OCc3ccccc3)cc2C1Cc1ccc(NC(=O)c2ccccc2)c(I)c1` (stereo not given) belongs 151 to 153 °C. To `CNC(=S)NCCSCc1csc(N)n1` belongs 136 to 140 °C; to `CCCC(=O)Nc1n[nH]c2cc(-c3ccc(CC)cc3)ccc12`, 210 °C; to `COc1cccc2c1C(C)C(=O)N2` (stereo not given), 128 to 130 °C. On to `COC(=O)c1ccc(C(=O)c2cc3c(cc2OCc2ccc(C(C)(C)C)cc2)C(C)(C)CCC3(C)C)cc1`, for which the melting point lay in the range of 168 to 170 °C. Turning to `CNC(=O)c1ccccc1Nc1nc(Nc2ccc3c(c2)CCN(CC(C)(C)F)CC3)ncc1Cl`, the melting point lay within 207 to 210 °C. Next, `COc1nc(-n2cc(C(=O)O)c(=O)c3cc(F)c(N4CC(N)C4)c(Cl)c32)c(F)cc1F`: 171 to 175 °C; `CCOC(=O)c1cnc2c(SCN3CCSCC3)cccn2c1=O`: 128 to 130 °C. Next, `CC(C)(C)NCC(O)COc1ccc(-c2nc(C(F)(F)F)c[nH]2)cc1` (stereo not given): 186 °C. To `Cn1ncc2c(c1=O)S(=O)(=O)CCNC2Cc1ccccc1` (stereo not given) belongs 288 to 290 °C.
